Measured values taken from patent publication US20240050457A1 (UROVANT SCIENCES GMBH, priority 2020, published 2024).
Where two headings read alike, the source gives them in different places.

Legend:
[1] = for Tmax, median: healthy subjects, 18
Method: (§1) An open-label, single-dose and multiple-dose, two-period, two-treatment single-sequence drug-drug interaction study was conducted. All subjects received Treatment A during Period 1 and Treatment B during Period 2.
(§2) Samples were stored in polypropylene tubes and kept frozen at approximately −20° C. prior to analysis. A 150-μL matrix aliquot was fortified with 20 μL of 40.0 ng/mL internal standard working solution. Analytes were isolated using an Isolute SLE+ (200-mg) supported liquid extraction 96-well plate and eluted with 800 μL of methylene chloride. The eluate was evaporated under a nitrogen stream at approximately 45° C., and the remaining residue was reconstituted with 250 μL of 90:10:40:0.7 water/methanol/acetonitrile/1.0 M ammonium acetate, v/v/v/v. The final extract was analyzed via HPLC with column-switching and MS/MS detection using positive ion electrospray. Extracts were analyzed by HPLC MS/MS using positive ion electrospray.

clinical = settings: human, plasma, po, 0.25 mg
Method: as §1, §2

β3-AR = β3-AR (Homo sapiens, UniProt P13945); settings: cell based in vitro assays; cited from earlier work
cytochrome P450 = settings: cited from earlier work

Sequence of β3-AR (P13945 whole entry): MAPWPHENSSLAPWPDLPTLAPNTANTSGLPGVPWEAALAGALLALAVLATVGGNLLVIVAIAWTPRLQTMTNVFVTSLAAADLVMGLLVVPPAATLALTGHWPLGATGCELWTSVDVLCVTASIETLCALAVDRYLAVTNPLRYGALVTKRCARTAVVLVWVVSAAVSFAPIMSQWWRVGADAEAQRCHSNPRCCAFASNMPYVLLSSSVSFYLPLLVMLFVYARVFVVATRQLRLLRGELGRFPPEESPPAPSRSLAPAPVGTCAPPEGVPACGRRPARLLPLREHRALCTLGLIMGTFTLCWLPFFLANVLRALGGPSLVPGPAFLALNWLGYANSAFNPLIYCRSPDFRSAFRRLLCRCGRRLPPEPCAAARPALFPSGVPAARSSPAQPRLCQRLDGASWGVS

For `C[C@H]1O[C@@H](O[C@H]2[C@@H](O)C[C@H](O[C@H]3[C@@H](O)C[C@H](O[C@H]4CC[C@@]5(C)[C@H](CC[C@@H]6[C@@H]5C[C@@H](O)[C@]5(C)[C@@H](C7=CC(=O)OC7)CC[C@]65O)C4)O[C@@H]3C)O[C@@H]2C)C[C@H](O)[C@@H]1O` [Digoxin], the “Tmax, median” value ([1]; Digoxin 0.25 mg × 1 dose with vibegron (150 mg × 1 dose + 100 mg × 5 doses)) was 1.00, the “Tmax, median” value ([1]; Digoxin alone, 0.25 mg single dose oral tablet) was 1.00 and the “change of half-life (T1/2)” value ([1]; group receiving digoxin+vibegron compared to group receiving digoxin alone) was “increase”. It also gave an AUC(0-inf) (clinical) of 17.2 ng·h/mL, a Cmax (clinical) of 1.24 ng/mL and a half-life (clinical) of 36.8 h.
For `O=C(Nc1ccc(C[C@@H]2CC[C@H]([C@H](O)c3ccccc3)N2)cc1)[C@@H]1CCc2nccc(=O)n21` [Vibegron, (6S)—N-[4-[[(2S,5R)-5-[(R)-hydroxy(phenyl)methyl]pyrrolidin-2-yl]methyl]phenyl]-4-oxo-7,8-dihydro-6H-pyrrolo[1,2-a]pyrimidine-6-carboxamide], the “selectivity for activation of β3-AR over β2-AR and β1-AR” value (β3-AR) is listed as > 9,000 fold and the “inhibitor of major enzymes produced from the cytochrome P450 genes” value (cytochrome P450) is listed as “not an inhibitor”.
